Source: PubChem BioAssay (NCI)
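All cell lines were grown in 96-well plates and treated with compound for 48 hours. Definition used: TGI = concentration required for complete inhibition of growth.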

What was measured:
Test in all cases: inhibition of tumour cell growth, NCI panel, 48 h
IGROV1 ovarian = test system: IGROV1 ovarian
A498 renal = test system: A498 renal
SK-OV-3 ovarian = test system: SK-OV-3 ovarian
SNB-19 CNS = test system: SNB-19 CNS
SN12C renal = test system: SN12C renal
SF-268 CNS = test system: SF-268 CNS
786-0 renal = test system: 786-0 renal
SNB-75 CNS = test system: SNB-75 CNS
HCT-116 colon = test system: HCT-116 colon
SK-MEL-5 melanoma = test system: SK-MEL-5 melanoma
NCI-H522 lung = test system: NCI-H522 lung
HCC-2998 colon = test system: HCC-2998 colon
OVCAR-5 ovarian = test system: OVCAR-5 ovarian
OVCAR-8 ovarian = test system: OVCAR-8 ovarian
U251 CNS = test system: U251 CNS
UACC-257 melanoma = test system: UACC-257 melanoma
TK-10 renal = test system: TK-10 renal
K-562 leukemia = test system: K-562 leukemia
HOP-92 NSCLC = test system: HOP-92 NSCLC
DU-145 prostate = test system: DU-145 prostate
MOLT-4 leukemia = test system: MOLT-4 leukemia
SF-539 CNS = test system: SF-539 CNS
T-47D breast = test system: T-47D breast
PC-3 prostate = test system: PC-3 prostate
A549 NSCLC = test system: A549 NSCLC
LOX IMVI melanoma = test system: LOX IMVI melanoma
EKVX NSCLC = test system: EKVX NSCLC
SK-MEL-28 melanoma = test system: SK-MEL-28 melanoma
CAKI-1 renal = test system: CAKI-1 renal
HS 578T breast = test system: HS 578T breast
SF-295 CNS = test system: SF-295 CNS
NCI-H226 lung = test system: NCI-H226 lung
SW-620 colon = test system: SW-620 colon
MDA-MB-231 breast = test system: MDA-MB-231 breast
HOP-62 NSCLC = test system: HOP-62 NSCLC
OVCAR-4 ovarian = test system: OVCAR-4 ovarian
NCI/ADR-RES ovarian = test system: NCI/ADR-RES ovarian
SK-MEL-2 melanoma = test system: SK-MEL-2 melanoma
MALME-3M melanoma = test system: MALME-3M melanoma
RPMI-8226 leukemia = test system: RPMI-8226 leukemia
COLO 205 colon = test system: COLO 205 colon
HCT-15 colon = test system: HCT-15 colon
NCI-H460 lung = test system: NCI-H460 lung
RXF 393 renal = test system: RXF 393 renal
SR leukemia = test system: SR leukemia
MCF7 breast = test system: MCF7 breast
UO-31 renal = test system: UO-31 renal
KM12 colon = test system: KM12 colon
OVCAR-3 ovarian = test system: OVCAR-3 ovarian
NCI-H23 lung = test system: NCI-H23 lung
ACHN renal = test system: ACHN renal
M14 melanoma = test system: M14 melanoma
HT29 colon = test system: HT29 colon
MDA-N = test system: MDA-N
MDA-MB-435 = test system: MDA-MB-435
CCRF-CEM leukemia = test system: CCRF-CEM leukemia
UACC-62 melanoma = test system: UACC-62 melanoma
HL-60(TB) leukemia = test system: HL-60(TB) leukemia
BT-549 breast = test system: BT-549 breast

Structure (SMILES): Cn1c(=S)sc2nc3ccccc3n2c1=S
- TGI (IGROV1 ovarian): 30.9 µM
- TGI (A498 renal): 46.9 µM
- TGI (SK-OV-3 ovarian): 36.5 µM
- TGI (SNB-19 CNS): 33.6 µM
- TGI (SN12C renal): 39.1 µM
- TGI (SF-268 CNS): 24.7 µM
- TGI (786-0 renal): 33.6 µM
- TGI (SNB-75 CNS): 48.8 µM
- TGI (HCT-116 colon): 17.9 µM
- TGI (SK-MEL-5 melanoma): 27 µM
- TGI (NCI-H522 lung): 15.1 µM
- TGI (HCC-2998 colon): 35.2 µM
- TGI (OVCAR-5 ovarian): 29.1 µM
- TGI (OVCAR-8 ovarian): 30.1 µM
- TGI (U251 CNS): 25.1 µM
- TGI (UACC-257 melanoma): 28.4 µM
- TGI (TK-10 renal): 55.4 µM
- TGI (K-562 leukemia): 21.5 µM
- TGI (HOP-92 NSCLC): 25.8 µM
- TGI (DU-145 prostate): 19 µM
- TGI (MOLT-4 leukemia): 38.7 µM
- TGI (SF-539 CNS): 27.1 µM
- TGI (T-47D breast): 39.6 µM
- TGI (PC-3 prostate): 92.3 µM
- TGI (A549 NSCLC): 97.5 µM
- TGI (LOX IMVI melanoma): 26.2 µM
- TGI (EKVX NSCLC): 44.6 µM
- TGI (SK-MEL-28 melanoma): 25.1 µM
- TGI (CAKI-1 renal): 39.2 µM
- TGI (HS 578T breast): 95.9 µM
- TGI (SF-295 CNS): 50.6 µM
- TGI (NCI-H226 lung): 58.7 µM
- TGI (SW-620 colon): 29.2 µM
- TGI (MDA-MB-231 breast): 38 µM
- TGI (HOP-62 NSCLC): 35.2 µM
- TGI (OVCAR-4 ovarian): 42.3 µM
- TGI (NCI/ADR-RES ovarian): 44.8 µM
- TGI (SK-MEL-2 melanoma): > 100 µM
- TGI (MALME-3M melanoma): 31.2 µM
- TGI (RPMI-8226 leukemia): 88.1 µM
- TGI (COLO 205 colon): 25.9 µM
- TGI (HCT-15 colon): 29.4 µM
- TGI (NCI-H460 lung): 27.9 µM
- TGI (RXF 393 renal): 27.4 µM
- TGI (SR leukemia): 23.2 µM
- TGI (MCF7 breast): 5.49 µM
- TGI (UO-31 renal): 18.8 µM
- TGI (KM12 colon): 27.4 µM
- TGI (OVCAR-3 ovarian): 25.4 µM
- TGI (NCI-H23 lung): 30.7 µM
- TGI (ACHN renal): 24 µM
- TGI (M14 melanoma): 18.7 µM
- TGI (HT29 colon): 25.8 µM
- TGI (MDA-N): 38.5 µM
- TGI (MDA-MB-435): 35.5 µM
- TGI (CCRF-CEM leukemia): 43.7 µM
- TGI (UACC-62 melanoma): 32.8 µM
- TGI (HL-60(TB) leukemia): 5.07 µM

Structure (SMILES): Cc1cc(C#N)c(Nc2c(C)cccc2[N+](=O)[O-])s1
- TGI (A498 renal): > 100 µM
- TGI (SK-OV-3 ovarian): > 100 µM
- TGI (SNB-19 CNS): > 100 µM
- TGI (SN12C renal): > 100 µM
- TGI (SF-268 CNS): 84.9 µM
- TGI (786-0 renal): 89.9 µM
- TGI (SNB-75 CNS): 72.2 µM
- TGI (HCT-116 colon): > 100 µM
- TGI (NCI-H522 lung): 73.6 µM
- TGI (BT-549 breast): 80.6 µM
- TGI (HCC-2998 colon): > 100 µM
- TGI (OVCAR-5 ovarian): > 100 µM
- TGI (OVCAR-8 ovarian): > 100 µM
- TGI (U251 CNS): > 100 µM
- TGI (UACC-257 melanoma): > 100 µM
- TGI (K-562 leukemia): > 100 µM
- TGI (HOP-92 NSCLC): 68.3 µM
- TGI (DU-145 prostate): > 100 µM
- TGI (MOLT-4 leukemia): > 100 µM
- TGI (SF-539 CNS): > 100 µM
- TGI (T-47D breast): > 100 µM
- TGI (PC-3 prostate): 54.4 µM
- TGI (A549 NSCLC): > 100 µM
- TGI (EKVX NSCLC): > 100 µM
- TGI (SK-MEL-28 melanoma): > 100 µM
- TGI (CAKI-1 renal): > 100 µM
- TGI (SF-295 CNS): > 100 µM
- TGI (NCI-H226 lung): > 100 µM
- TGI (SW-620 colon): > 100 µM
- TGI (MDA-MB-231 breast): 79.4 µM
- TGI (HOP-62 NSCLC): 75.2 µM
- TGI (OVCAR-4 ovarian): > 100 µM
- TGI (NCI/ADR-RES ovarian): 82.3 µM
- TGI (MALME-3M melanoma): 89.3 µM
- TGI (RPMI-8226 leukemia): > 100 µM
- TGI (COLO 205 colon): > 100 µM
- TGI (HCT-15 colon): > 100 µM
- TGI (NCI-H460 lung): > 100 µM
- TGI (RXF 393 renal): 55.4 µM
- TGI (SR leukemia): > 100 µM
- TGI (UO-31 renal): > 100 µM
- TGI (KM12 colon): > 100 µM
- TGI (OVCAR-3 ovarian): > 100 µM
- TGI (NCI-H23 lung): > 100 µM
- TGI (ACHN renal): > 100 µM
- TGI (M14 melanoma): > 100 µM
- TGI (MDA-N): > 100 µM
- TGI (MDA-MB-435): > 100 µM
- TGI (CCRF-CEM leukemia): 55 µM
- TGI (UACC-62 melanoma): > 100 µM
